Laboratory results taken from ChEMBL document CHEMBL3886985, “Benzothiophene derivative” (2016).

What follows are compounds tested against T1, cAMP and cAMP-inhibited cGMP 3',5'-cyclic phosphodiesterase 10A (Homo sapiens, UniProt Q9Y233) (assay: Activity Assay: Inhibitory activity-1 assay: To a solution containing 20 mM Tris-HCl (pH 7.5), 1 mM MgCl2, 100 μM EDTA, 330 μg/ml bovine serum albumin, 50 kU/ml 5′-nucleotidase, 0.1 μCi 3H-cAMP (64 nM cAMP), and PDE10A (H-PDE10A2, Human Phosphodiesterase 10A2, Scottish Biomedical), a test compound was added, and the mixture was reacted at 25° C. for 2 hours. To the reaction solution, QAE-Sephadex (17-0190-01, GE Healthcare Japan Corp.) suspended in 10 mM HEPES-Na (pH 7.0) (hereinafter, also referred to as a “QAE-Sephadex suspension”) was added, and the mixture was shaken for 1 minute and left standing for 5 minutes to obtain a supernatant. To the supernatant, a QAE-Sephadex suspension was further added, and the mixture was shaken for 1 minute and left standing for 5 minutes. Then, the obtained supernatant was transferred to LumaPlate (PerkinElmer, Inc.) and assayed using a radiation counter (TopCount NXT, PerkinElmer, Inc.).).
T1 sequence (Q9Y233 whole entry): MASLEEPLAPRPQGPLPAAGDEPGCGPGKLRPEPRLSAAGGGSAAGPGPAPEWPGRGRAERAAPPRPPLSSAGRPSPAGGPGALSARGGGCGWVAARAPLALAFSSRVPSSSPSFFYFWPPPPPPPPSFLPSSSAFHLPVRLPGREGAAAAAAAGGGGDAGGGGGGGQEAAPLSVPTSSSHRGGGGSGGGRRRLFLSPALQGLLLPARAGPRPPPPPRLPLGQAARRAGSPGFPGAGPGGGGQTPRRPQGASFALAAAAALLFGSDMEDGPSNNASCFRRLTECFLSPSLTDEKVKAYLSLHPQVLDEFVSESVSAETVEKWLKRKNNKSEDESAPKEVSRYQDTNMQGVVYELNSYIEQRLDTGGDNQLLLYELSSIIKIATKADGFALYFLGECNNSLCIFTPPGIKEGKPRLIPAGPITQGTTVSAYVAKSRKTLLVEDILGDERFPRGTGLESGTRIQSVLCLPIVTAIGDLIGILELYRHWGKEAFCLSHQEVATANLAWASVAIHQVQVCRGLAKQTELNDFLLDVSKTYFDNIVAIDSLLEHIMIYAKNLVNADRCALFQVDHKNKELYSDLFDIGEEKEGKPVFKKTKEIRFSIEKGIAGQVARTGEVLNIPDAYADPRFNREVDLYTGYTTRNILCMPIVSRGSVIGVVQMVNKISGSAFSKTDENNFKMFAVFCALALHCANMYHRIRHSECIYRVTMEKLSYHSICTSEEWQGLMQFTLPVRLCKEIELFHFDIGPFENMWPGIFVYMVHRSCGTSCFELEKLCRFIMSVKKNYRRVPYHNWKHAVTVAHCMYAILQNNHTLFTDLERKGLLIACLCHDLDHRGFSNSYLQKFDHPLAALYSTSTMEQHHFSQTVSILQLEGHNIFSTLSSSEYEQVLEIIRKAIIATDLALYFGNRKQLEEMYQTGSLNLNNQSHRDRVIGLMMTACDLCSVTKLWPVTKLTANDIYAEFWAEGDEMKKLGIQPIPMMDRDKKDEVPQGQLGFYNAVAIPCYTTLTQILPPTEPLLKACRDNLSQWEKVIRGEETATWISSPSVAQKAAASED
COCc1ccc(C(C)=O)c2sc(C(=O)Nc3ccc4c(COP(=O)(O)O)cccc4n3)c(C)c12 gave an IC50 of 0.99 nM.

These compounds were tested against T1, cAMP and cAMP-inhibited cGMP 3',5'-cyclic phosphodiesterase 10A (assay: Activity Assay: A human acute lymphoblastic […] T cell line MOLT-4 (which can be purchased under ATCC No. CRL-1582 from ATCC) was cultured in an RPMI1640 medium containing 10% fetal bovine serum to obtain 5108 MOLT-4 cells. The cells were recovered by centrifugation and suspended in 10 ml of buffer solution A (25 mM Tris-HCl, 5 mM 2-mercaptoethanol, 2 mM benzamidine, 2 mM EDTA, and 0.1 mM 4-(2-aminoethyl)benzenesulfonyl hydrochloride, pH 7.5). The cells were homogenized using a Polytron homogenizer and centrifuged (4° C., 25,000 g, 10 minutes). Then, the supernatant was further ultracentrifuged (4° C., 100,000 g, 60 minutes). The obtained supernatant was filtered through a 0.2um filter to obtain a soluble fraction.HiTrap Q HP column (5 ml2, GE Healthcare Japan Corp.) equilibrated with buffer solution A was charged with the obtained soluble fraction. Phosphodiesterase was eluted with 300 ml of buffer solution A containing a linear gradient solution of 0 to 0.8 M NaCl to recover sixty 5-ml fractions. Each fraction was tested for cAMP-metabolizing phosphodiesterase activity. […] In order to confirm whether or not PDE10A mRNA was expressed in the MOLT-4 cells, total RNA was prepared from the MOLT-4 cells according to a standard method and analyzed by RT-PCR using PDE10A gene-specific primers (PDE10A sense primer: 5'-[…]-3' (SEQ ID NO: 1) and PDE10A antisense primer: 5'-[…]-3' (SEQ ID NO: 2)). As a result, PDE10A mRNA was detected from the total RNA of the MOLT-4 cells. On the other hand, total RNA was prepared from Jurkat cells, one type of human T cell, and similarly subjected to RT-PCR. As a result, PDE10A mRNA was rarely detected. An active peak centered around 250 mM NaCl was not observed in fractions obtained by the treatment of Jurkat cells in the same way as above. Eur J Biochem. 1999, 266 (3), 1118-2 has reported that PDE10A from the rat striatum and testis is eluted as an active peak centered around 250 mM NaCl.).
Type: cell-based
In the case of COCc1ccc(C(C)=O)c2sc(C(=O)Nc3ccc4c(COC(=O)CCC(=O)O)cccc4n3)c(C)c12, the IC50 is reported as 1 nM.
COCc1ccc(C(C)=O)c2sc(C(=O)Nc3ccc4c(C(=O)N5CCN(C)CC5)cccc4n3)c(C)c12 gave an IC50 of 0.31 nM.
COCc1ccc(C(C)=O)c2sc(C(=O)Nc3ccc4ccccc4n3)c(C)c12 showed an IC50 of 1.1 nM.
Compound COCc1ccc(C(C)=O)c2sc(C(=O)Nc3cc(N(C)C)c4ccccc4n3)c(C)c12 has an IC50 of 0.45 nM.
For COCc1ccc(C(C)=O)c2sc(C(=O)Nc3ccc4c(CN5CCOCC5)cccc4n3)c(C)c12, the IC50 was 1.3 nM.
Work on COCc1ccc(C(C)=O)c2sc(C(=O)Nc3ccc4c(CN5CC[C@@H](F)C5)cccc4n3)c(C)c12 yielded an IC50 of 1.2 nM.
For COCc1ccc(C(C)=O)c2sc(C(=O)Nc3ccc4c(CN(C)C)cccc4n3)c(C)c12, the IC50 was 1.8 nM.
